± gives the standard deviation of the averaged measurements.
Key:
Test in all cases: normalised growth rate inhibition (GR value) relative to DMSO control (GR (1 = untreated growth, 0 = cytostasis, <0 = cytotoxic)); higher = less growth inhibition
Conditions in all cases: 72 h
[1] = tested on: MCF7
Procedure: (§1)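 Breast cancer cell lines (BT-20, Hs 578T, MCF 10A, MCF7, MDA-MB-231, SK-BR-3) were plated in 384-well plates and treated 24 h later with drugs at six concentrations (0.04-10 µM). Viable cells were counted by Hoechst/dead-cell-stain imaging at 0 and 72 h. Counts were normalised to DMSO controls on the same plate to give the relative cell count and the growth-rate inhibition (GR) value; technical plate triplicates were averaged for each biological replicate.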

[2] = tested on: HS578T
Procedure: as §1

[3] = tested on: BT20
Procedure: as §1

[4] = tested on: MDAMB231
Procedure: as §1

[5] = tested on: SKBR3
Procedure: as §1

[6] = tested on: MCF10A
Procedure: as §1

SMILES | normalised growth rate inhibition ([1]; 0.04 µM) | normalised growth rate inhibition ([1]; 0.12 µM) | normalised growth rate inhibition ([1]; 0.37 µM) | normalised growth rate inhibition ([1]; 1.11 µM) | normalised growth rate inhibition ([1]; 3.33 µM) | normalised growth rate inhibition ([1]; 10 µM) | normalised growth rate inhibition ([2]; 0.04 µM) | normalised growth rate inhibition ([2]; 0.12 µM) | normalised growth rate inhibition ([2]; 0.37 µM) | normalised growth rate inhibition ([2]; 1.11 µM) | normalised growth rate inhibition ([2]; 3.33 µM) | normalised growth rate inhibition ([2]; 10 µM) | normalised growth rate inhibition ([3]; 0.04 µM) | normalised growth rate inhibition ([3]; 0.12 µM) | normalised growth rate inhibition ([3]; 0.37 µM) | normalised growth rate inhibition ([3]; 1.11 µM) | normalised growth rate inhibition ([3]; 3.33 µM) | normalised growth rate inhibition ([3]; 10 µM) | normalised growth rate inhibition ([4]; 0.04 µM) | normalised growth rate inhibition ([4]; 0.12 µM) | normalised growth rate inhibition ([4]; 0.37 µM) | normalised growth rate inhibition ([4]; 1.11 µM) | normalised growth rate inhibition ([4]; 3.33 µM) | normalised growth rate inhibition ([4]; 10 µM) | normalised growth rate inhibition ([5]; 0.04 µM) | normalised growth rate inhibition ([5]; 0.12 µM) | normalised growth rate inhibition ([5]; 0.37 µM) | normalised growth rate inhibition ([5]; 1.11 µM) | normalised growth rate inhibition ([5]; 3.33 µM) | normalised growth rate inhibition ([5]; 10 µM) | normalised growth rate inhibition ([6]; 0.04 µM) | normalised growth rate inhibition ([6]; 0.12 µM) | normalised growth rate inhibition ([6]; 0.37 µM) | normalised growth rate inhibition ([6]; 1.11 µM) | normalised growth rate inhibition ([6]; 3.33 µM) | normalised growth rate inhibition ([6]; 10 µM)
CN1CC[C@H](c2c(O)cc(O)c3c(=O)cc(-c4ccccc4Cl)oc23)[C@H](O)C1 [alvocidib] | -0.0866 ± 0.19 | -0.328 ± 0.037 | -0.335 ± 0.068 | -0.359 ± 0.057 | -0.361 ± 0.077 | -0.364 ± 0.07 | 0.48 ± 0.23 | -0.156 ± 0.1 | -0.206 ± 0.082 | -0.196 ± 0.11 | -0.193 ± 0.098 | -0.188 ± 0.11 | 0.324 ± 0.32 | -0.0878 ± 0.2 | -0.251 ± 0.083 | -0.35 ± 0.19 | -0.339 ± 0.2 | -0.365 ± 0.21 | 0.184 ± 0.25 | -0.239 ± 0.12 | -0.273 ± 0.13 | -0.273 ± 0.16 | -0.282 ± 0.14 | -0.287 ± 0.16 | 0.102 ± 0.038 | -0.287 ± 0.2 | -0.32 ± 0.26 | -0.367 ± 0.21 | -0.357 ± 0.22 | -0.391 ± 0.21 | 0.197 ± 0.27 | -0.2 ± 0.16 | -0.288 ± 0.23 | -0.281 ± 0.24 | -0.281 ± 0.25 | -0.263 ± 0.22
Cc1cc2c(F)c(Oc3ncnn4cc(OC[C@@H](C)O)c(C)c34)ccc2[nH]1 [brivanib] | 0.902 ± 0.093 | 0.864 ± 0.064 | 0.898 ± 0.079 | 0.908 ± 0.062 | 0.949 ± 0.029 | 0.86 ± 0.035 | 0.963 ± 0.016 | 0.952 ± 0.02 | 0.963 ± 0.011 | 0.9364 ± 0.0061 | 0.9281 ± 0.0053 | 0.797 ± 0.055 | 0.949 ± 0.039 | 0.935 ± 0.016 | 0.956 ± 0.012 | 0.928 ± 0.024 | 0.925 ± 0.047 | 0.798 ± 0.03 | 0.902 ± 0.11 | 0.892 ± 0.081 | 0.91 ± 0.062 | 0.923 ± 0.062 | 0.895 ± 0.1 | 0.667 ± 0.094 | 0.811 ± 0.14 | 0.798 ± 0.17 | 0.807 ± 0.15 | 0.861 ± 0.11 | 0.85 ± 0.11 | 0.822 ± 0.1 | 0.992 ± 0.017 | 0.977 ± 0.023 | 0.969 ± 0.016 | 0.883 ± 0.043 | 0.74 ± 0.071 | 0.316 ± 0.043
Nc1cc(C(F)(F)F)c(-c2cc(N3CCOCC3)nc(N3CCOCC3)n2)cn1 [buparlisib] | 0.759 ± 0.25 | 0.475 ± 0.18 | 0.148 ± 0.069 | -0.113 ± 0.032 | -0.188 ± 0.0036 | -0.189 ± 0.021 | 0.955 ± 0.025 | 0.845 ± 0.028 | 0.679 ± 0.039 | 0.142 ± 0.16 | -0.17 ± 0.099 | -0.231 ± 0.091 | 1.01 ± 0.029 | 0.868 ± 0.1 | 0.501 ± 0.11 | 0.0131 ± 0.038 | -0.261 ± 0.11 | -0.346 ± 0.12 | 1.05 ± 0.063 | 0.978 ± 0.027 | 0.844 ± 0.04 | 0.487 ± 0.062 | 0.0994 ± 0.052 | -0.255 ± 0.12 | 0.917 ± 0.09 | 0.651 ± 0.1 | 0.145 ± 0.056 | -0.203 ± 0.16 | -0.281 ± 0.14 | -0.332 ± 0.13 | 1 ± 0.012 | 0.956 ± 0.044 | 0.857 ± 0.11 | 0.487 ± 0.23 | 0.0221 ± 0.089 | -0.181 ± 0.12
C=CC(=O)Nc1cc2c(Nc3ccc(F)c(Cl)c3)ncnc2cc1OCCCN1CCOCC1 [canertinib] | 0.9894 ± 0.0058 | 0.884 ± 0.035 | 0.801 ± 0.053 | 0.67 ± 0.062 | 0.505 ± 0.13 | -0.367 ± 0.092 | 1 ± 0.028 | 0.996 ± 0.028 | 0.969 ± 0.019 | 0.944 ± 0.011 | 0.851 ± 0.034 | -0.289 ± 0.13 | 0.896 ± 0.044 | 0.8804 ± 0.0073 | 0.831 ± 0.027 | 0.814 ± 0.045 | 0.71 ± 0.061 | -0.13 ± 0.097 | 1.04 ± 0.029 | 0.965 ± 0.015 | 0.909 ± 0.026 | 0.782 ± 0.034 | 0.572 ± 0.099 | -0.249 ± 0.077 | 0.148 ± 0.089 | 0.023 ± 0.12 | -0.0304 ± 0.15 | -0.0844 ± 0.15 | -0.124 ± 0.14 | -0.261 ± 0.12 | 0.702 ± 0.24 | 0.498 ± 0.26 | 0.313 ± 0.2 | 0.173 ± 0.1 | 0.105 ± 0.033 | -0.39 ± 0.22

Reference: the supplement of paper PMC5662764
